Reference: US20250188092A1, “RIFAMYCIN ANALOGS” (THE REGENTS OF THE UNIVERSITY OF MICHIGAN, priority 2021, published 2025)
In brackets after ≈: the same amount, converted by molar mass.

Tests used:
[1] = test system: VERO cells (ATCC CRL-81); experiment: Vero cell toxicity; format: cell-based; settings: Chlorocebus sabaeus, Vero; 72 hours exposure
Experimental: Cytotoxicity for a mammalian cell line was determined by exposing VERO cells (ATCC CRL-81) to serial dilutions of test compounds for 72 hours, followed by addition of resazurin and measurement of fluorescence after 4 hours incubation (Choules, et al., Antimnicrob. Agents Chemother. 2019, 63, e02204-02218).

[2] = test system: DPX2 cells; settings: for DPX2 Viability @ 6.25 μM: 24 h; for DPX2 Viability @ 25 μM: human
[3] = test system: MTB H37Rv ATCC 27294; experiment: MIC, microplate Alamar Blue assay (MABA); format: cell-based, Mycobacterium tuberculosis; settings: for MIC90: Mycobacterium tuberculosis, MTB H37Rv ATCC 27294, microplate Alamar Blue assay, lowest concentration giving ≥90% reduction in fluorescence

CO[C@H]1/C=C/O[C@@]2(C)Oc3c(C)c(O)c4c(=O)c(c5oc6cc(N7CCN(C(=O)c8ccc9occc9c8)CC7)cc(OCc7ccc(CN8CCOCC8)cc7)c6nc-5c4c3C2=O)NC(=O)/C(C)=C\C=C\[C@H](C)[C@H](O)[C@@H](C)[C@@H](O)[C@@H](C)[C@H](OC(C)=O)[C@@H]1C [Compound 17s, (7S,9E,11S,12R,13S,14R,15R,16R,17S,18S,19E,21Z)-30-{4-[(1-benzofuran-5-yl)carbonyl]piperazin-1-yl}-2,15,17-trihydroxy-11-methoxy-3,7,12,14,16,18,22-heptamethyl-32-{[4-(morpholin-4-ylmethyl)phenyl]methoxy}-6,23,37-trioxo-8,27,38-trioxa-24,34-diazahexacyclo[23.11.1.1^4,7.0^5,36.0^26,35.0^28,33]octatriaconta-1,3,5(36)9,19,21,25,28,30,32,34-undecaen-13-yl acetate]
IC50 [1]: > 10 µM
DPX2 Viability @ 6.25 μM [2]: 102%
DPX2 Viability @ 25 μM [2]: 86%
MIC90 MABA Rel to RMP [3]: 0.36
MIC90 [3]: 0.018 µM

CO[C@H]1/C=C/O[C@@]2(C)Oc3c(C)c(O)c4c(=O)c(c5oc6cc(N7CCCC(C(=O)Nc8ccc(Cl)cc8)C7)cc(C)c6nc-5c4c3C2=O)NC(=O)/C(C)=C\C=C\[C@H](C)[C@H](O)[C@@H](C)[C@@H](O)[C@@H](C)[C@H](OC(C)=O)[C@@H]1C (stereo partly drawn) [Compound 28, (7S,9E,11S,12R,13S,14R,15R,16R,17S,1S,19E,21Z)-30-{3-[(4-Chlorophenyl)carbamoyl]piperidin-1-yl}-2,15,17-trihydroxy-11-methoxy-3,7,12,14,16,18,22,32-octamethyl-6,23,37-trioxo-8,27,38-trioxa-24,34-diazahexacyclo[23.11.1.1^4,7.0^5,36.0^26,35.0^28,33]octatriaconta-1(36)2,4,9,19,21,25,28,30,32,34-undecaen-13-yl acetate]
IC50 [1]: > 10 µM
DPX2 Viability @ 6.25 μM [2]: 110%
DPX2 Viability @ 25 μM [2]: 109%
MIC90 MABA Rel to RMP [3]: 0.16
MIC90 [3]: 0.0044 µM

CO[C@H]1/C=C/O[C@@]2(C)Oc3c(C)c(O)c4c(=O)c(c5oc6cc(N7CCN(C(=O)c8cccc(-c9ccccn9)c8)CC7)cc(C)c6nc-5c4c3C2=O)NC(=O)/C(C)=C\C=C\[C@H](C)[C@H](O)[C@@H](C)[C@@H](O)[C@@H](C)[C@H](OC(C)=O)[C@@H]1C [Compound 29b, (7S,9E,11S,12R,13S,14R,15R,16R,17S,18S,19E,21Z)-2,15,17-Trihydroxy-11-methoxy-3,7,12,14,16,18,22,32-octamethyl-6,23,37-trioxo-30-(4-[3-(pyridin-2-yl)benzoyl]piperazin-1-yl)-8,27,38-trioxa-24,34-diazahexacyclo-[23.11.1.1^4,7.0^5,36.0^26,35.0^28,33]octatriaconta-1(36)2,4,9,19,21,25,28,30,32,34-undecaen-13-yl acetate]
IC50 [1]: > 10 µM
DPX2 Viability @ 6.25 μM [2]: 136%
DPX2 Viability @ 25 μM [2]: 128%
MIC90 MABA Rel to RMP [3]: 0.32
MIC90 [3]: 0.0087 µM

CO[C@H]1/C=C/O[C@@]2(C)Oc3c(C)c(O)c4c(=O)c(c5oc6cc(N7CCN(C(=O)c8ccc9occc9c8)CC7)cc(C)c6nc-5c4c3C2=O)NC(=O)/C(C)=C\C=C\[C@H](C)[C@H](O)[C@@H](C)[C@@H](O)[C@@H](C)[C@H](OC(C)=O)[C@@H]1C [Compound 29c, (7S,9E,11S,12R,13S,14R,15R,16R,17S,18S,19E,21Z)-30-[4-(1-Benzofuran-5-carbonyl)piperazin-1-yl]-2,15,17-trihydroxy-11-methoxy-3,7,12,14,16,18,22,32-octamethyl-6,23,37-trioxo-8,27,38-trioxa-24,34-diazahexacyclo[23.11.1.1^4,7.0^5,36.0^26,35.0^28,33]octatriaconta-(36)2,4,9,19,21,25,28,30,32,34-undecaen-13-yl acetate]
IC50 [1]: > 10 µM
DPX2 Viability @ 6.25 μM [2]: 121%
DPX2 Viability @ 25 μM [2]: 114%
MIC90 MABA Rel to RMP [3]: 0.18
MIC90 [3]: 0.0049 µM

CO[C@H]1/C=C/O[C@@]2(C)Oc3c(C)c(O)c4c(=O)c(c5oc6cc(N7CCC(C(=O)O)CC7)cc(C)c6nc-5c4c3C2=O)NC(=O)/C(C)=C\C=C\[C@H](C)[C@H](O)[C@@H](C)[C@@H](O)[C@@H](C)[C@H](OC(C)=O)[C@@H]1C [Compound 29f, 1-[(7S,9E,11S,12R,13S,14R,15R,16R,17S,18S,19E,21Z)-13-(acetyloxy)-2,15,17-trihydroxy-11-methoxy-3,7,12,14,16,18,22,32-octamethyl-6,23,37-trioxo-8,27,38-trioxa-24,34-diazahexacyclo-[23.11.1.1^4,7.0^5,36.0^26,35.0^28,33]octatriaconta-1,3,5(36)9,19,21,25,28,30,32,34-undecaen-30-yl]piperidine-4-carboxylic acid]
IC50 [1]: > 10 µM
DPX2 Viability @ 6.25 μM [2]: 126%
DPX2 Viability @ 25 μM [2]: 131%
MIC90 MABA Rel to RMP [3]: 8.9
MIC90 [3]: 0.238 µM (≈ 0.22 µg/mL)

CO[C@H]1/C=C/O[C@@]2(C)Oc3c(C)c(O)c4c(=O)c(c5oc6cc(N7CCC(CC(=O)O)CC7)cc(C)c6nc-5c4c3C2=O)NC(=O)/C(C)=C\C=C\[C@H](C)[C@H](O)[C@@H](C)[C@@H](O)[C@@H](C)[C@H](OC(C)=O)[C@@H]1C [Compound 29g, 2-{4-[(7S,9E,11S,12R,13S,14R,15R,16R,17S,18S,19E,21Z)-13-(acetyloxy)-2,15,17-trihydroxy-11-methoxy-3,7,12,14,16,18,22,32-octamethyl-6,23,37-trioxo-8,27,38-trioxa-24,34-diazahexacyclo[23.11.1.1^4,7.0^5,36.0^26,35.0^28,33]octatriaconta-1,3,5(36)9,19,21,25,28,30,32,34-undecaen-30-yl]piperidin-4-yl}acetic acid]
IC50 [1]: > 10 µM
DPX2 Viability @ 6.25 μM [2]: 100%
DPX2 Viability @ 25 μM [2]: 101%
MIC90 MABA Rel to RMP [3]: 1.9
MIC90 [3]: 0.051 µM (≈ 0.0479 µg/mL)

CO[C@H]1/C=C/O[C@@]2(C)Oc3c(C)c(O)c4c(=O)c(c5oc6cc(N7CCN(CC(=O)O)CC7)cc(C)c6nc-5c4c3C2=O)NC(=O)/C(C)=C\C=C\[C@H](C)[C@H](O)[C@@H](C)[C@@H](O)[C@@H](C)[C@H](OC(C)=O)[C@@H]1C [Compound 29h, 2-{4-[(7S,9E,11S,12R,13S,14R,15R,16R,17S,18S,19E,21Z)-13-(acetyloxy)-2,15,17-trihydroxy-11-methoxy-3,7,12,14,16,18,22,32-octamethyl-6,23,37-trioxo-8,27,38-trioxa-24,34-diazahexacyclo[23.11.1.1^4,7.0^5,36.0^26,35.0^28,33]octatriaconta-1,3,5(36)9,19,21,25,28,30,32,34-undecaen-30-yl]piperazin-1-yl}acetic acid]
IC50 [1]: > 10 µM
DPX2 Viability @ 6.25 μM [2]: 109%
DPX2 Viability @ 25 μM [2]: 98%
MIC90 MABA Rel to RMP [3]: 0.69
MIC90 [3]: 0.018 µM (≈ 0.0169 µg/mL)

CO[C@H]1/C=C/O[C@@]2(C)Oc3c(C)c(O)c4c(=O)c(c5oc6cc(C)cc(N7CCN(CCn8ccnc8)CC7)c6nc-5c4c3C2=O)NC(=O)/C(C)=C\C=C\[C@H](C)[C@H](O)[C@@H](C)[C@@H](O)[C@@H](C)[C@H](OC(C)=O)[C@@H]1C [Compound 30e, (7S,9E,11S,12R,13S,14R,15R,16R,17S,18S,19E,21Z)-2,15,17-Trihydroxy-32-{4-[3-(1H-imidazol-1-yl)ethyl]piperazin-1-yl}-11-methoxy-3,7,12,14,16,18,22,30-octamethyl-6,23,37-trioxo-8,27,38-trioxa-24,34-diazahexacyclo[23.11.1.1^4,7.0^5,36.0^26,35.0^28,33]octatriaconta-1(36)2,4,9,19,21,25,28,30,32,34-undecaen-13-yl acetate]
IC50 [1]: > 10 µM
DPX2 Viability @ 6.25 μM [2]: 130%
DPX2 Viability @ 25 μM [2]: 119%
MIC90 MABA Rel to RMP [3]: 3.11
MIC90 [3]: 0.084 µM

CO[C@H]1/C=C/O[C@@]2(C)Oc3c(C)c(O)c4c(=O)c(c5oc6cc(C)cc(N7CCN(C(=O)c8cccc(-n9ccnc9)c8)CC7)c6nc-5c4c3C2=O)NC(=O)/C(C)=C\C=C\[C@H](C)[C@H](O)[C@@H](C)[C@@H](O)[C@@H](C)[C@H](OC(C)=O)[C@@H]1C [Compound 30f, (7S,9E,11S,12R,13S,14R,15R,16R,17S,18S,19E,21Z)-2,15,17-Trihydroxy-32-{4-[3-(1H-imidazol-1-yl)benzoyl]piperazin-1-yl}-11-methoxy-3,7,12,14,16,18,22,30-octamethyl-6,23,37-trioxo-8,27,38-trioxa-24,34-diazahexacyclo[23.11.1.1^4,7.0^5,36.0^26,35.0^28,33]octatriaconta-1(36)2,4,9,19,21,25,28,30,32,34-undecaen-13-yl acetate]
IC50 [1]: > 10 µM
DPX2 Viability @ 6.25 μM [2]: 98%
DPX2 Viability @ 25 μM [2]: 64%
MIC90 MABA Rel to RMP [3]: 1.63
MIC90 [3]: 0.044 µM
